# Source: paper PMC7985445, “Characterization of Plasmodium falciparum Pantothenate Kinase and Identification of Its Inhibitors From Natural Products” (Frontiers in Cellular and Infection Microbiology, 2021)
# Several values for one entry are separate records, joined by “and”; a condition that tells them apart may be missing. Identical values can stand only once. Like-named read-outs stand apart in the source and are kept apart here.
# Experiments:
# [1] = biological target: T1, PfPanK1 (Plasmodium falciparum, UniProt Q8ILP4); assay type: biochemical
# T1 sequence (Q8ILP4 1-519): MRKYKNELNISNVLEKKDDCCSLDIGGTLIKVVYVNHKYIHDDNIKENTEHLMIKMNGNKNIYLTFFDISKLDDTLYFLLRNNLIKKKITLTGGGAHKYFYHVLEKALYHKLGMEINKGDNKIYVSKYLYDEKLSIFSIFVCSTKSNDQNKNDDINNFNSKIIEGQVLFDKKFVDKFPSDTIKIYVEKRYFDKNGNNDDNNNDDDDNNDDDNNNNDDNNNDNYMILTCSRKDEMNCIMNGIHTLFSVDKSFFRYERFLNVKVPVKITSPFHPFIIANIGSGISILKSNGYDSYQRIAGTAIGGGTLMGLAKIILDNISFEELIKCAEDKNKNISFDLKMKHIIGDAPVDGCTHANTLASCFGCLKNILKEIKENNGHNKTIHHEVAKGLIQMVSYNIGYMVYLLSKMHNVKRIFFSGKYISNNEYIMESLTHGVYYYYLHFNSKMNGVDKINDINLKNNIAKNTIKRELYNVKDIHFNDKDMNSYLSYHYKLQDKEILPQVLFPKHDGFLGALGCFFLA
# [2] = biological target: T1, PfPanK1; test: Screening of natural compounds for PfPanK inhibitors and IC50 determination (recombinant enzyme, ADP Hunter Plus); assay type: biochemical
# Protocol: We screened 247 compounds from the Kitasato Natural Products Library ([Mori et al., 2015]; [Nurkanto et al., 2018]) against PfPanK recombinant enzyme. Compounds were dissolved in 50% DMSO at a final concentration of 1 mg/ml.
# [3] = metal ion 5 mM, substrate pantetheine, relative to MgCl2, pH 8.4, 37°C
# [4] = metal ion 5 mM, substrate pantothenate, relative to MgCl2, pH 8.4, 37°C
# [5] = substrate pair pantetheine and ATP
# [6] = substrate pair pantothenate and ATP
molecule,measurement,setting,value
Cc1cn([C@H]2C[C@H](O)[C@@H](COP(=O)(O)OP(=O)(O)OP(=O)(O)O)O2)c(=O)[nH]c1=O [TTP],Relative activity (%) Pantetheine,[1]; pH 8.4,0.0 ± 0.0%
same,Relative activity (%) Pantothenate,[1]; pH 8.4,13.1 ± 1.0%
CC1(C)S[C@@H]2[C@H](NC(=O)[C@H](N)c3ccc(O)cc3)C(=O)N2[C@H]1C(=O)O [Amoxicillin],inhibition,"[2]; primary screening; 37°C, 2 h",45.7%
[Cl][Cu][Cl] [CuCl2],Relative activity (%) Pantetheine,[1]; [3],8.5 ± 1.3%
same,Relative activity (%) Pantothenate,[1]; [4],16.4 ± 1.5%
CCC[C@@H]1C[C@@H](C(=O)N[C@@H]([C@H]2O[C@H](SC)[C@H](O)[C@@H](O)[C@H]2O)[C@@H](C)O)N(C)C1 [Lincomycin],inhibition,"[2]; 2 h, primary screening; 37°C",41.3%
CC(/C=C/C(=O)NO)=C\[C@@H](C)C(=O)c1ccc(N(C)C)cc1 [Trichostatin],inhibition,"[2]; primary screening; 37°C, 2 h",47.2%
O=c1ccn([C@@H]2O[C@H](COP(=O)(O)OP(=O)(O)OP(=O)(O)O)[C@@H](O)[C@H]2O)c(=O)[nH]1 [UTP],Relative activity (%) Pantetheine,[1]; pH 8.4,23.8 ± 2.3%
same,Relative activity (%) Pantothenate,[1]; pH 8.4,64.1 ± 1.0%
CC(=O)SCCNC(=O)CCNC(=O)[C@H](O)C(C)(C)COP(=O)(O)OP(=O)(O)OC[C@H]1O[C@@H](n2cnc3c(N)ncnc32)[C@H](O)[C@@H]1OP(=O)(O)O [Acetyl CoA],Effect on PfPanK1 activity,"[1]; pantetheine as substrate, 100 μM ATP, pH 8.4, 37°C",did not affect PfPanK1 activity
same,IC50,[1]; pantothenate as substrate,> 1000 µM
Nc1ccn([C@@H]2O[C@H](COP(=O)(O)OP(=O)(O)OP(=O)(O)O)[C@@H](O)[C@H]2O)c(=O)n1 [CTP],Relative activity (%) Pantetheine,[1]; pH 8.4,11.3 ± 0.6%
same,Relative activity (%) Pantothenate,[1]; pH 8.4,28.1 ± 2.8%
CN[C@@H]1[C@H](O[C@H]2[C@H](O[C@H]3[C@H](O)[C@@H](O)[C@H](NC(=N)N)[C@@H](O)[C@@H]3NC(=N)N)O[C@@H](C)[C@]2(O)CO)O[C@@H](CO)[C@H](O)[C@H]1O [Dihydrostreptomycin],inhibition,"[2]; 2 h, primary screening; 37°C",44.7%
Gardimycin,PfPanK1 Inhibition (%),"[2]; primary screening; compound at 50 µM final concentration (methods: 50 µg/ml); 37°C, 2 h",42.5%
[Cl-].[Li+] [LiCl2],Relative activity (%) Pantetheine,[1]; [3],32.6 ± 4.1%
same,Relative activity (%) Pantothenate,[1]; [4],37.9 ± 9.6%
C=C/C(C)=C/[C@@]1(C)SC(=O)C(C)=C1O [Thiolactomycin],inhibition,"[2]; primary screening; 37°C, 2 h",42.4%
[Cl-].[Cl-].[Mg+2] [MgCl2],Relative activity (%) Pantetheine,[1]; [3],100%
same,Relative activity (%) Pantothenate,[1]; [4],100%
Nc1nc2c(ncn2[C@@H]2O[C@H](COP(=O)(O)OP(=O)(O)OP(=O)(O)O)[C@@H](O)[C@H]2O)c(=O)[nH]1 [GTP],Relative activity (%) Pantetheine,[1]; pH 8.4,106.5 ± 4.4%
same,Relative activity (%) Pantothenate,[1]; pH 8.4,107.6 ± 8.1%
[Cl][Ni][Cl] [NiCl2],Relative activity (%) Pantetheine,[1]; [3],41.4 ± 3.4%
same,Relative activity (%) Pantothenate,[1]; [4],49.0 ± 5.5%
[Ca+2].[Cl-].[Cl-] [CaCl2],Relative activity (%) Pantetheine,[1]; [3],30.5 ± 1.6%
same,Relative activity (%) Pantothenate,[1]; [4],39.9 ± 4.7%
Nc1ncnc2c1ncn2[C@@H]1O[C@H](COP(=O)(O)OP(=O)(O)OP(=O)(O)O)[C@@H](O)[C@H]1O [ATP],K m,[1],59.3 ± 7.9 µM
same,Relative activity (%) Pantothenate,[1]; pH 8.4,100%
same,Relative activity (%) Pantetheine,"[1]; phosphoryl donor (NTP) 100 µM, substrate pantetheine, relative to ATP, pH 8.4, 37°C",100%
same,V max,[1]; [5],18.3 ± 3.0 µmol/min/mg
same,k cat,[1]; [5],20.55 ± 0.9 s⁻¹
same,k cat/K m,[1]; [5],26.6 ± 6.3 min^-1µM^-1
same,K m,"[1]; substrate pair pantetheine and ATP, 120 µM ATP or 100 µM pantetheine, 37°C",43.4 ± 3.3 µM and 43.4 ± 3.4 µM
same,V max,[1]; [6],15.9 ± 2.5 µmol/min/mg
same,k cat,[1]; [6],16.1 ± 1.72 s⁻¹
same,k cat/K m,[1]; [6],16.1 ± 1.0 min^-1µM^-1
CC(C)(CO)[C@@H](O)C(=O)NCCC(=O)O [Pantothenate],K m,[1],44.6 ± 5.6 µM
same,k cat/K m,[1],19.1 ± 1.0 min^-1µM^-1
same,V max,[1]; [6],14.2 ± 0.71 µmol/min/mg
same,k cat,[1]; [6],14.2 ± 1.28 s⁻¹
[Cl][Fe][Cl] [FeCl2],Relative activity (%) Pantetheine,[1]; [3],58.3 ± 3.3%
same,Relative activity (%) Pantetheine,"[1]; metal ion 5 mM, substrate pantetheine, relative to MgCl2, pH 8.4, 37°C, listed as Ferrous cation",approximately 60%
same,Relative activity (%) Pantothenate,[1]; [4],104.7 ± 14.9%
